From BindingDB's records for doi:10.1016/S1074-5521(02)00310-1 (Tohoku University, 2003) come the findings set out here.

pIC50: −log10 of the molar value.

For the assay, the target named is T1, Peptidyl-prolyl cis-trans isomerase ESS1 (Saccharomyces cerevisiae (strain ATCC 204508 / S288c), UniProt P22696).
T1 sequence (P22696 whole entry): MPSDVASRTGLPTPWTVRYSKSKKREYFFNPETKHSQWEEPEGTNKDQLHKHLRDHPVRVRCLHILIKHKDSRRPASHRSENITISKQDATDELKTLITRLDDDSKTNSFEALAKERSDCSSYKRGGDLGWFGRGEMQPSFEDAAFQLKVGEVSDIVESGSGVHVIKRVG
As to the kind of experiment: Pin1 Inhibition Assay. The following applies: pH 7; 0 °C. As to the method: Assay was carried out measuring the MCA fluorescence using Suc-Ala-Glu-Pro-Phe-MCA as substrate purchased from Japan Peptide Institute Co.
For the compound `COc1ccc(C2/C=C\CN(C(=O)c3ccccc3)CC(=O)N2Cc2ccc(F)cc2)cc1` (stereo not drawn), the pIC50 was less than 5.00.

`COc1ccc(C2CC(O)(c3ccccc3)Oc3c(C)ccc(C)c32)cc1` (stereo not drawn) [4-(4-methoxyphenyl)-5,8-dimethyl-2-phenyl-chroman-2-ol] had a pIC50 of 5.30.

Take `O=C(O)CN1C(=O)c2cccc3cccc(c23)C1=O` [(1,3-dioxo-1H-benzo[de]isoquinolin-2(3H)-yl)acetic acid]: the pIC50 was less than 5.00.

`CC(C)C[C@H](NC(=O)c1[nH]cnc1C(=O)N1CCc2ccccc2C1)C(=O)OCc1ccccc1` [(2S)-2-[[[5-[3,4-dihydro-1H-isoquinolin-2-yl(oxo)methyl]-1H-imidazol-4-yl]-oxomethyl]amino]-4-methylpentanoic acid (phenylmethyl) ester] had a pIC50 of less than 5.82.

The compound `COc1ccc(Br)cc1[C@H]1[C@@H]2C=CCC[C@@]2(C)C(=O)N1Cc1ccccc1` [(3R,3aR,7aR)-2-benzyl-3-(5-bromo-2-methoxy-phenyl)-7a-methyl-3,3a,6,7-tetrahydroisoindol-1-one] gave a pIC50 of 5.30.

As to `C[C@@]12CCC=C[C@H]1[C@H](c1ccc3ccccc3c1Br)N(Cc1ccccc1)C2=O` [(3R,3aR,7aR)-3-(1-bromanylnaphthalen-2-yl)-7a-methyl-2-(phenylmethyl)-3,3a,6,7-tetrahydroisoindol-1-one], the pIC50 was 5.82.

In turn, `Cc1ccc(-c2cc([C@H]3[C@@H]4C=CCC[C@@]4(C)C(=O)N3Cc3ccccc3)ccc2F)cc1` [(3R,3aR,7aR)-3-[4-fluoro-3-(4-methylphenyl)phenyl]-7a-methyl-2-(phenylmethyl)-3,3a,6,7-tetrahydroisoindol-1-one] showed a pIC50 of 5.30.

Compound `CC[C@@H]1CC=C[C@H]2[C@H]1C(=O)N(Cc1ccccc1)[C@H]2c1ccc(OC)c(Cl)c1` [(3R,3aS,7R,7aS)-3-(3-chloranyl-4-methoxy-phenyl)-7-ethyl-2-(phenylmethyl)-3a,6,7,7a-tetrahydro-3H-isoindol-1-one] had a pIC50 of 5.70.

For the compound `CC(C)C[C@H](NC(=O)c1[nH]cnc1C(=O)N[C@@H](C)C(=O)OC(C)(C)C)C(=O)OCc1ccccc1` [(phenylmethyl) (2S)-4-methyl-2-[[4-[[(2S)-1-[(2-methylpropan-2-yl)oxy]-1-oxidanylidene-propan-2-yl]carbamoyl]-1H-imidazol-5-yl]carbonylamino]pentanoate], the pIC50 was less than 5.00.

Compound `Cc1cccc(NC(=O)c2[nH]cnc2C(=O)N[C@@H](CCCCNC(=O)OC(C)(C)C)C(=O)OC(C)(C)C)c1` [ILP-IV-14] had a pIC50 of less than 5.00.

For the compound `COc1ccccc1-c1cc(=O)c2c(O)ccc([N+](=O)[O-])c2o1` [MLS000518626], the pIC50 is less than 5.00.

For `CCOC(=O)c1ccc(NC(=O)c2[nH]cnc2C(=O)N[C@@H](CCCCNC(=O)OC(C)(C)C)C(=O)OC(C)(C)C)cc1` [MLS000849609], the pIC50 is 5.60.

`CCOC(=O)c1ccc(NC(=O)c2[nH]cnc2C(=O)N[C@@H](Cc2ccccc2)C(=O)OC(C)(C)C)cc1` [ethyl 4-[[5-[[(2S)-1-[(2-methylpropan-2-yl)oxy]-1-oxidanylidene-3-phenyl-propan-2-yl]carbamoyl]-1H-imidazol-4-yl]carbonylamino]benzoate] showed a pIC50 of less than 5.00.
